Assays:
[1] = AUC(0 to 2 hrs) in Beagle dog brain at 0.1 mg/kg, sc by LC-MS/MS analysis; type: ADME, organism-based, Canis lupus familiaris; design: time < 2 hr, dose 0.1 mg/kg, route subcutaneous
[2] = AUC(0 to infinity) in Sprague-Dawley rat cerebrospinal fluid at 1 mg/kg, sc by LC-MS/MS analysis; type: ADME, organism-based; design: time infinity, dose 1 mg/kg, route subcutaneous
[3] = AUC(0 to 1 hr) in cynomolgus monkey cerebrospinal fluid at 0.1 mg/kg, sc by LC-MS/MS analysis; type: ADME, organism-based, Macaca fascicularis; design: time < 1 hr, dose 0.1 mg/kg, route subcutaneous
[4] = AUC(0 to infinity) in Sprague-Dawley rat plasma at 1 mg/kg, sc by LC-MS/MS analysis; type: ADME, organism-based; design: time infinity, dose 1 mg/kg, route subcutaneous
[5] = AUC(0 to 1 hr) in cynomolgus monkey brain at 0.1 mg/kg, sc by LC-MS/MS analysis; type: ADME, organism-based, Macaca fascicularis; design: time < 1 hr, dose 0.1 mg/kg, route subcutaneous
[6] = Ratio of drug level in brain to plasma in Sprague-Dawley rat at 1 mg/kg, sc by LC-MS/MS analysis; type: ADME, organism-based; design: dose 1 mg/kg, route subcutaneous; conditions: read-out: BPR
Nucleic Acid [7] = experiment: Ratio of drug level in cerebrospinal fluid to unbound plasma concentration in Sprague-Dawley rat at 1 mg/kg, sc by LC-MS/MS analysis; type: ADME, organism-based; design: dose 1 mg/kg, route subcutaneous; conditions: in vivo
[8] = AUC(0 to 2 hrs) in Sprague-Dawley rat plasma at 1 mg/kg, sc by LC-MS/MS analysis; type: ADME, organism-based; design: time < 2 hr, dose 1 mg/kg, route subcutaneous
[9] = AUC(0 to 1 hr) in cynomolgus monkey plasma at 0.1 mg/kg, sc by LC-MS/MS analysis; type: ADME, organism-based, Macaca fascicularis; design: time < 1 hr, dose 0.1 mg/kg, route subcutaneous
[10] = Ratio of unbound brain concentration to drug level in cerebrospinal fluid in cynomolgus monkey at 0.1 mg/kg, sc by LC-MS/MS analysis; type: ADME, organism-based, Macaca fascicularis; design: dose 0.1 mg/kg, route subcutaneous; conditions: in vivo
[11] = Unbound fraction in Beagle dog plasma at 0.1 mg/kg, sc by LC-MS/MS analysis; type: ADME, organism-based, Canis lupus familiaris; design: dose 0.1 mg/kg, route subcutaneous
[12] = Ratio of unbound drug level in brain to plasma in Sprague-Dawley rat at 1 mg/kg, sc by LC-MS/MS analysis; type: ADME, organism-based; design: dose 1 mg/kg, route subcutaneous
[13] = AUC(0 to 2 hrs) in Beagle dog cerebrospinal fluid at 0.1 mg/kg, sc by LC-MS/MS analysis; type: ADME, organism-based, Canis lupus familiaris; design: time < 2 hr, dose 0.1 mg/kg, route subcutaneous
[14] = AUC(0 to infinity) in Sprague-Dawley rat brain at 1 mg/kg, sc by LC-MS/MS analysis; type: ADME, organism-based; design: time infinity, dose 1 mg/kg, route subcutaneous
[15] = AUC(0 to 2 hrs) in Sprague-Dawley rat brain at 1 mg/kg, sc by LC-MS/MS analysis; type: ADME, organism-based; design: time < 2 hr, dose 1 mg/kg, route subcutaneous
[16] = Unbound fraction in cynomolgus monkey plasma at 0.1 mg/kg, sc by LC-MS/MS analysis; type: ADME, organism-based, Macaca fascicularis; design: dose 0.1 mg/kg, route subcutaneous
[17] = Unbound fraction in Beagle dog brain at 0.1 mg/kg, sc by LC-MS/MS analysis
[18] = Ratio of drug level in brain to plasma in cynomolgus monkey at 0.1 mg/kg, sc by LC-MS/MS analysis; type: ADME, organism-based, Macaca fascicularis; design: dose 0.1 mg/kg, route subcutaneous; conditions: brain and plasma, read-out: BPR
[19] = Ratio of drug level in brain to plasma in Beagle dog at 0.1 mg/kg, sc by LC-MS/MS analysis; type: ADME, organism-based, Canis lupus familiaris; design: dose 0.1 mg/kg, route subcutaneous; conditions: brain and plasma, read-out: BPR
[20] = AUC(0 to 2 hrs) in Beagle dog plasma at 0.1 mg/kg, sc by LC-MS/MS analysis; type: ADME, organism-based, Canis lupus familiaris; design: time < 2 hr, dose 0.1 mg/kg, route subcutaneous
Nucleic Acid [21] = experiment: Ratio of drug level in cerebrospinal fluid to unbound plasma concentration in cynomolgus monkey at 0.1 mg/kg, sc by LC-MS/MS analysis; type: ADME, organism-based, Macaca fascicularis; design: dose 0.1 mg/kg, route subcutaneous; conditions: in vivo
[22] = Ratio of unbound drug level in brain to plasma in Beagle dog at 0.1 mg/kg, sc by LC-MS/MS analysis; type: ADME, organism-based, Canis lupus familiaris; design: dose 0.1 mg/kg, route subcutaneous; conditions: brain and plasma
[23] = Ratio of unbound brain concentration to drug level in cerebrospinal fluid in Sprague-Dawley rat at 1 mg/kg, sc by LC-MS/MS analysis; type: ADME, organism-based; design: dose 1 mg/kg, route subcutaneous; conditions: in vivo
[24] = Ratio of unbound brain concentration to drug level in cerebrospinal fluid in Beagle dog at 0.1 mg/kg, sc by LC-MS/MS analysis; type: ADME, organism-based, Canis lupus familiaris; design: dose 0.1 mg/kg, route subcutaneous; conditions: in vivo
[25] = AUC(0 to 2 hrs) in Sprague-Dawley rat cerebrospinal fluid at 1 mg/kg, sc by LC-MS/MS analysis; type: ADME, organism-based; design: time < 2 hr, dose 1 mg/kg, route subcutaneous
[26] = Ratio of unbound drug level in brain to plasma in cynomolgus monkey at 0.1 mg/kg, sc by LC-MS/MS analysis; type: ADME, organism-based, Macaca fascicularis; design: dose 0.1 mg/kg, route subcutaneous; conditions: brain and plasma
[27] = Unbound fraction in cynomolgus monkey brain at 0.1 mg/kg, sc by LC-MS/MS analysis; type: ADME, organism-based, Macaca fascicularis; design: dose 0.1 mg/kg, route subcutaneous
[28] = Unbound fraction in Beagle dog brain at 0.5 mg/kg, po by LC-MS/MS analysis; type: ADME, organism-based, Canis lupus familiaris; design: dose 0.5 mg/kg, route oral
[29] = Ratio of unbound brain concentration to drug level in cerebrospinal fluid in Beagle dog at 0.5 mg/kg, po by LC-MS/MS analysis; type: ADME, organism-based, Canis lupus familiaris; design: dose 0.5 mg/kg, route oral; conditions: in vivo
[30] = Ratio of unbound drug level in brain to plasma in Beagle dog at 0.5 mg/kg, po by LC-MS/MS analysis; type: ADME, organism-based, Canis lupus familiaris; design: dose 0.5 mg/kg, route oral; conditions: brain and plasma
Nucleic Acid [31] = experiment: Ratio of drug level in cerebrospinal fluid to unbound plasma concentration in Beagle dog at 0.5 mg/kg, po by LC-MS/MS analysis; type: ADME, organism-based, Canis lupus familiaris; design: dose 0.5 mg/kg, route oral; conditions: in vivo
[32] = Unbound fraction in Beagle dog plasma at 0.5 mg/kg, po by LC-MS/MS analysis; type: ADME, organism-based, Canis lupus familiaris; design: dose 0.5 mg/kg, route oral
[33] = AUC(0 to 7 hrs) in Sprague-Dawley rat plasma at 0.2 mg/kg, sc by LC-MS/MS analysis; type: ADME, organism-based; design: time < 7 hr, dose 0.2 mg/kg, route subcutaneous
[34] = AUC(0 to infinity) in Sprague-Dawley rat cerebrospinal fluid at 0.2 mg/kg, sc by LC-MS/MS analysis; type: ADME, organism-based; design: time infinity, dose 0.2 mg/kg, route subcutaneous
[35] = AUC(0 to infinity) in Sprague-Dawley rat plasma at 0.2 mg/kg, sc by LC-MS/MS analysis; type: ADME, organism-based; design: dose 0.2 mg/kg, route subcutaneous, time infinity
[36] = AUC(0 to 7 hrs) in Sprague-Dawley rat brain at 0.2 mg/kg, sc by LC-MS/MS analysis; type: ADME, organism-based; design: time < 7 hr, dose 0.2 mg/kg, route subcutaneous
[37] = AUC(0 to 7 hrs) in Sprague-Dawley rat cerebrospinal fluid at 0.2 mg/kg, sc by LC-MS/MS analysis; type: ADME, organism-based; design: time < 7 hr, dose 0.2 mg/kg, route subcutaneous
[38] = AUC(0 to infinity) in Sprague-Dawley rat brain at 0.2 mg/kg, sc by LC-MS/MS analysis; type: ADME, organism-based; design: time infinity, dose 0.2 mg/kg, route subcutaneous

Structure (SMILES) | AUC(0-inf) [2] | AUC(0-inf) [4] | Kp [6] | Ratio (Nucleic Acid [7]) | AUC(0-t) at 2 h [8] | Ratio [10] | Kp uu [12] | AUC(0-inf) [14] | AUC(0-t) at 2 h [15] | fraction unbound [16] | Kp [18] | Ratio (Nucleic Acid [21]) | Ratio [23] | AUC(0-t) at 2 h [25] | Kp uu [26] | fraction unbound [27] | also measured
Cc1nc2n(c(=O)c1CCN1CCC(c3noc4cc(F)ccc34)CC1)CCCC2 [RISPERIDONE] | 11.9 ng·h/mL | 441 ng·h/mL | 0.26 | 0.35 | 409 ng·h/mL | 1.82 | 0.23 | 130 ng·h/mL | 108 ng·h/mL | 0.084 | 0.82 | 0.49 | 0.67 | 11.3 ng·h/mL | 0.89 | 0.0919 | AUC(0-t) at 2 h [1]: 72 ng·h/mL; AUC(0-t) at 1 h [3]: 1.14 ng·h/mL; AUC(0-t) at 1 h [5]: 22.6 ng·h/mL; AUC(0-t) at 1 h [9]: 27.6 ng·h/mL; fraction unbound [11]: 0.083; AUC(0-t) at 2 h [13]: 3.48 ng·h/mL; fraction unbound [17]: 0.0809; Kp [19]: 1.01; AUC(0-t) at 2 h [20]: 71.2 ng·h/mL; Kp uu [22]: 0.99; Ratio [24]: 1.67
CC(C)S(=O)(=O)N[C@H]1CCOC[C@@H]1c1ccc(-c2ccc(C#N)s2)cc1 | 5.4 ng·h/mL | 131 ng·h/mL | 1.07 | 0.6 | 122 ng·h/mL | 0.94 | 0.44 | 150 ng·h/mL | 131 ng·h/mL | 0.0876 | 2.82 | 0.78 | 0.74 | 3.46 ng·h/mL | 0.73 | 0.0228 | fraction unbound [28]: 0.026; Ratio [29]: 1.19; Kp uu [30]: 0.51; Ratio (Nucleic Acid [31]): 0.43; fraction unbound [32]: 0.0685
CCCC(C)C1(CC)C(=O)NC(=S)NC1=O (centres undefined) [THIOPENTAL] | – | – | – | – | – | – | – | – | – | – | – | – | – | – | – | – | AUC(0-t) at 7 h [33]: 216 ng·h/mL; AUC(0-inf) [34]: 16.6 ng·h/mL; AUC(0-inf) [35]: 244 ng·h/mL; AUC(0-t) at 7 h [36]: 209 ng·h/mL; AUC(0-t) at 7 h [37]: 16.4 ng·h/mL; AUC(0-inf) [38]: 215 ng·h/mL
